{"source": "paper PMC11500008", "about": "“Novel quinazolin-4-one based derivatives bearing 1,2,3-triazole and glycoside moieties as potential cytotoxic agents through dual EGFR and VEGFR-2 inhibitory activity” (Scientific Reports, 2024)", "key": {"MCF-7 cell line [1]": {"test_system": "MCF-7 cell line", "parameters": "method as in PMID 37453330", "conditions": "cellular activity; read-out: IC50 against MCF-7 cell line; cited from earlier work"}, "BJ-1 normal cell line": {"test_system": "BJ-1 normal cell line", "test": "MTT cytotoxicity assay, normal BJ-1 fibroblasts (safety profile)", "assay_type": "cell-based", "conditions": "Homo sapiens; BJ-1 normal fibroblast-derived cells; 48 h incubation; mean of three values; read-out: IC50 (mean±SD) BJ-1", "method": "[…]. The safety profiles of all derivatives were assessed through cytotoxic evaluation using human fibroblast-derived BJ-1 normal cell lines. […].\n(§1) The recently incorporated quinazolinone-based targets 1–4, 6–13 underwent evaluation for their cytotoxic effects with in vitro employing MTT technique, according to the procedure that has been published[48]–[50], utilizing human fibroblast-derived BJ-1 normal cell line, and human cancer liver HepG-2, breast MCF-7, and colon HCT-116 cell lines. These cell lines were purchased from Karolinska Center, Department of Oncology and Pathology, Karolinska Institute and Hospital, Stockholm, Sweden, There were further details in the supplemental file.\n(§2) The cell lines were obtained from Karolinska Center, Department of Oncology and Pathology, Karolinska Institute and Hospital, Stockholm, Sweden as follows: human liver HepG-2, breast MCF-7, and colorectal HCT-116 cancer cell lines and human fibroblast-derived BJ-1 normal cell line. Exponentially, cells were placed in 10^4 cells/ well for 24 h, and then add fresh medium which containing different concentration of the tested sample. Serial two-fold dilution of the tested sample were added using a multichannel pipette. Moreover, all cells were cultivated at 37 °C, 5% CO2 and 95% humidity. Also, incubation of control cells occurred at 37 °C. However, after incubation for 24 h different concentrations of sample (25, 12.5, 6.25 and 3.125 µM) were added and continued the incubation for 48 h, then, add the crystal violet solution 1% to each well for 0.5 h to examine viable cells. Rinse the wells using water until no stain. After that, add 30% glacial acetic acid to all wells with shaking plates on Microplate reader (TECAN, Inc.) to measure the absorbance, using a test wavelength of 490 nm. Besides, compare the treated samples with the control cell. The cytotoxicity was estimated by IC50 in (μM), the concentration that inhibits 50% of growth of cancer cell."}, "HCT-116 cells [2]": {"test_system": "HCT-116 cells", "test": "Apoptosis analysis by annexin V-FITC/PI flow cytometry", "assay_type": "cell-based, human", "conditions": "5.40 µM, 24 h", "method": "(§3) The most powerful cytotoxic derivative, quinazolinone-1,2,3-triazole glycoside 13, underwent 24-hour treatment at a dose of 5.40 µM to find out if it caused cell death by the apoptotic pathway in HCT-116 cells. Using annexin-V labeling, flow cytometry was employed to further analyze the cells (Figs. 4, 5 and 6).\n(§4) The examination of apoptosis and the interpretation of the cell cycle were described[37] utilizing flow cytometry. HCT-116 cells were treated with quinacolinone-1,2,3-triazole glycoside 13 for a full day, and after that, the cells were cultured at 37 °C. There were more details added to supporting documentation .\n(§5) Cell cycle analysis and apoptosis study were carried out using flow cytometry. HCT-116 cells were seeded at 8×10^4 and incubated at 37°C in 5% CO2 overnight. After treatment with the tested compound 10 for 24 h, cell pellets were collected and centrifuged (300 g, 5 min). For cell cycle analysis cell pellets were fixed with 70% ethanol on ice for 15 min and collected again. The pellets were incubated with propidium iodide (PI) staining solution at room temperature for 1 h and analyzed by a Gallios flow cytometer (Beckman Coulter, Brea, CA, USA). Apoptosis detection was carried out by FITC AnnexinV/PI commercial kit (Becton Dickenson, Franklin Lakes, NJ, USA) following the manufacturer protocol. The samples were analyzed by fluorescence-activated cell sorting (FACS) with a Gallios flow cytometer (Beckman Coulter, Brea, CA, USA) within 1 h after staining. Data were analyzed using Kaluza v 1.2 (Beckman Coulter)."}, "EGFR": {"molecular_target": "EGFR (Homo sapiens, UniProt P00533)", "sequence (P00533 25-1210)": "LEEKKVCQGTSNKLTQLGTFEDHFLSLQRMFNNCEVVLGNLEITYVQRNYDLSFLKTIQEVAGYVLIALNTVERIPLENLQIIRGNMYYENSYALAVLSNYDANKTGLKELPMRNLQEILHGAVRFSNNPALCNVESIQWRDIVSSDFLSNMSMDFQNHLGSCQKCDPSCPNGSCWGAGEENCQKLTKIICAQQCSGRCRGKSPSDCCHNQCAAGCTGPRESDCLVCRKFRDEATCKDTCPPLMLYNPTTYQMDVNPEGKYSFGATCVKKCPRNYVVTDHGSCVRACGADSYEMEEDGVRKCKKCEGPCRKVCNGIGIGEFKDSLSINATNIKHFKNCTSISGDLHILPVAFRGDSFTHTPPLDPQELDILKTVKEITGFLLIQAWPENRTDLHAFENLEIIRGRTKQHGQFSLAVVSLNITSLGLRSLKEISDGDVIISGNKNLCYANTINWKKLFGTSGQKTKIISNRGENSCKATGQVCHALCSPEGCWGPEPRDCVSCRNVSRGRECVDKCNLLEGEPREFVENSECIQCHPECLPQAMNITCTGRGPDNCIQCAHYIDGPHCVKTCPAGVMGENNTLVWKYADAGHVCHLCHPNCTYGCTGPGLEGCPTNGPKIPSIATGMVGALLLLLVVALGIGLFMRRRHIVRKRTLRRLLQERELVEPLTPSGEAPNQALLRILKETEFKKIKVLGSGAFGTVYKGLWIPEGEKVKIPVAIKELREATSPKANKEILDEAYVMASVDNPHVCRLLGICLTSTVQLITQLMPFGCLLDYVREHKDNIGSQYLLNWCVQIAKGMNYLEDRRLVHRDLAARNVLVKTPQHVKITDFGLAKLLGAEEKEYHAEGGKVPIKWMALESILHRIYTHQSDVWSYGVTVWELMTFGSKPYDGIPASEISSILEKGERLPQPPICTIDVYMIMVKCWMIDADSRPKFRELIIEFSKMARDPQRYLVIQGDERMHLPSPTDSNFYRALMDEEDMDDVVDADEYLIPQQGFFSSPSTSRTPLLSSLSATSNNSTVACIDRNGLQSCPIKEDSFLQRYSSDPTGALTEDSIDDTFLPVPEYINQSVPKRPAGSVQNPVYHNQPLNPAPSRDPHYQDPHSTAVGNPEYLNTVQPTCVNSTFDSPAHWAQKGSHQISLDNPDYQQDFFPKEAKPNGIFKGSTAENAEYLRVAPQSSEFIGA", "test": "In vitro EGFR inhibition assay (Kinase-Glo luminescence)"}, "p53": {"test_system": "p53", "test": "p53 level in HCT-116 cells (ELISA)", "assay_type": "cell-based, human", "method": "(§6) The methods previously described for the appealing quinazolinone-1,2,3-triazole glycoside 13 was used to clearly show the levels of p53, Bax, Bcl-2, and in HCT-116 cells.\nHuman p53 present in HCT-116 cells was determined; using Human p53 ELISA-Kit (CS0070 Sigma) read using spectrophotometer at 450 nm against untreated control cells (negative control) applying the standard protocols of the manufacturers. The samples or standard having human p53 bind to antibodies adsorbed to the microwells. Addition of biotin-conjugated was followed by incubation and addition of dispense of unbound biotin-conjugated streptavidin HRP. Then, the reaction was terminated by adding acid, and the absorbance was measured at 450 nm."}, "Bcl-2": {"test_system": "Bcl-2", "test": "Bcl-2 level in HCT-116 cells", "assay_type": "cell-based, human", "text": "as §6\n(§7) The levels of the apoptotic marker Bax and anti-apoptotic marker Bcl-2 were estimated using BIO RAD iScript TM One-Step RT-PCR kit with SYBR® Green. The procedure of the used kit was done according to the manufacturer’s instructions."}, "HCT-116 cells [3]": {"test_system": "HCT-116 cells", "test": "Cell cycle analysis by flow cytometry (PI)", "assay_type": "cell-based, human", "method": "as §3, §4, §5"}, "Bax": {"test_system": "Bax", "test": "Bax level in HCT-116 cells", "assay_type": "cell-based, human", "text": "as §6, §7"}, "HepG-2 cell line": {"test_system": "HepG-2 cell line", "test": "MTT cytotoxicity assay, HepG-2", "assay_type": "cell-based", "conditions": "Homo sapiens, HepG2; HepG-2 liver cancer cells; 48 h incubation; mean of three values; read-out: IC50 (mean±SD) HepG-2", "text": "as §1, §2"}, "VEGFR-2": {"molecular_target": "VEGFR-2 (Homo sapiens, UniProt P35968)", "sequence (P35968 20-1356)": "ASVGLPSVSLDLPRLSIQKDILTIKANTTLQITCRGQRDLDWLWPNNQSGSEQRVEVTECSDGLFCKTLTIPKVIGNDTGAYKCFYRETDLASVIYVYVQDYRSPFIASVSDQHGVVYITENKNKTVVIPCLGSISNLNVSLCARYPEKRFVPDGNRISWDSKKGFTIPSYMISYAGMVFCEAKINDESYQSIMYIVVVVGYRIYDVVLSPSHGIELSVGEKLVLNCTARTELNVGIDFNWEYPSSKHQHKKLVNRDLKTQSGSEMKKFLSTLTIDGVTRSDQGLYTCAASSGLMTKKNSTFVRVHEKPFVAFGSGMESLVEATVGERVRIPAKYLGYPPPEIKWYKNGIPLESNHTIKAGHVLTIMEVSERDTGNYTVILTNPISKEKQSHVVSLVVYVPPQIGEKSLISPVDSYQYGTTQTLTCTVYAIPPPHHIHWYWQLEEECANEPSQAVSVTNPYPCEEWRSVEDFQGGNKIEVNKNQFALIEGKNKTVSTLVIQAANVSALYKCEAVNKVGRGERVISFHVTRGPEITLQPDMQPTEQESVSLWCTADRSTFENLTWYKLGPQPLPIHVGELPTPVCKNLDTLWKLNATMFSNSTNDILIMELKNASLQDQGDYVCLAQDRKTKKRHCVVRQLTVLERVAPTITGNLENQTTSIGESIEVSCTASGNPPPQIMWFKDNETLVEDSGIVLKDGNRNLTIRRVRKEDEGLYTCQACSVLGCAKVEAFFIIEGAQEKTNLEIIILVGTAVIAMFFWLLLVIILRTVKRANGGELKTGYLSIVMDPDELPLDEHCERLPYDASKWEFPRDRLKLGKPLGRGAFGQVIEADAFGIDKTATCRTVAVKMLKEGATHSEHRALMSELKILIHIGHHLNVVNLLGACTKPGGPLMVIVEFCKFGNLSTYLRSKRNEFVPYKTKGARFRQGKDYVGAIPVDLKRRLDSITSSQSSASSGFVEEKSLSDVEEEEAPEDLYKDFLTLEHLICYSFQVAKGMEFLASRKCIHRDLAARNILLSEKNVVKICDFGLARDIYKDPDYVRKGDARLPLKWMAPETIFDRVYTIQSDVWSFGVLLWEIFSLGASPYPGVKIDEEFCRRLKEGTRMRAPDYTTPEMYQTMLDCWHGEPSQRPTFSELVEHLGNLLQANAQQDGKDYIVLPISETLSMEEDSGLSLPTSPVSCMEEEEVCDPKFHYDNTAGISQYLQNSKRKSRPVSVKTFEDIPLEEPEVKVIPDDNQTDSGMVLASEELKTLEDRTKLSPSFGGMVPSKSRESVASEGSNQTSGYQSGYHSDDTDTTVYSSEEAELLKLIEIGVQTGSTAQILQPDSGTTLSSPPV", "test": "In vitro VEGFR-2 inhibition assay (ELISA)", "conditions": "read-out: IC50 (mean ± SD) VEGFR-2; average of three values"}, "HCT-116 cell line": {"test_system": "HCT-116 cell line", "test": "MTT cytotoxicity assay, HCT-116", "assay_type": "cell-based", "conditions": "Homo sapiens; HCT-116 colorectal cancer cells; 48 h incubation; mean of three values; read-out: IC50 (mean±SD) HCT-116", "text": "as §1, §2"}, "MCF-7 cell line [4]": {"test_system": "MCF-7 cell line", "test": "MTT cytotoxicity assay, MCF-7", "assay_type": "cell-based", "conditions": "Homo sapiens, MCF7; MCF-7 breast cancer cells; 48 h incubation; mean of three values; read-out: IC50 (mean±SD) MCF-7", "text": "as §1, §2"}}, "note": "Several values for one entry are separate records, joined by “and”; a condition that tells them apart may be missing. Equal values may be shown once. Read-outs that look alike come from different tables or passages of the source."}
{"molecule": "COc1ccc(Cc2nnc(COc3ncnc4ccccc34)o2)cc1OC", "note": "[IV]", "values": [{"measurement": "IC50", "setting": "MCF-7 cell line [1]", "result": 0.23, "unit": "µM"}]}
{"molecule": "Cn1c(SCc2cn([C@@H]3OC[C@@H](O)[C@H](O)[C@H]3O)nn2)nc2ccccc2c1=O", "note": "[Compound 13, 2-(((1-[β-D-Xylopyranosyl]-1 H-1,2,3-triazol-4-yl)methyl)thio)-3-methylquinazolin-4(3 H)-one]", "values": [{"measurement": "IC50", "setting": "BJ-1 normal cell line", "result": "23.5 ± 2.3", "unit": "µM"}, {"measurement": "Apoptosis Late", "setting": "HCT-116 cells [2]; DMSO control 0.14", "result": 25.36, "unit": "%"}, {"measurement": "Apoptosis Early", "setting": "HCT-116 cells [2]; DMSO control 0.55", "result": 7.42, "unit": "%"}, {"measurement": "Necrosis", "setting": "HCT-116 cells [2]; DMSO control 1.35", "result": 3.53, "unit": "%"}, {"measurement": "IC50", "setting": "EGFR", "result": "0.31 ± 0.06", "unit": "µM"}, {"measurement": "P53", "setting": "p53; 24-hour treatment at IC50 5.40 µM, control 139.65", "result": "885.72 pg/mL and 885.72 ± 1.49 pg/mL"}, {"measurement": "enhancement of p53 protein levels versus control", "setting": "p53; 24 h, 5.40 µM", "result": 6.3, "unit": "times"}, {"measurement": "Bcl-2", "setting": "Bcl-2; 24-hour treatment at IC50 5.40 µM, control 7.48", "result": "3.15 ng/mL and 3.15 ± 0.22 ng/mL"}, {"measurement": "reduction of Bcl-2 protein levels versus control", "setting": "Bcl-2; 24 h, 5.40 µM", "result": "~2.4", "unit": "times"}, {"measurement": "stage of cell cycle arrest", "setting": "HCT-116 cells [3]", "result": "G1 stage"}, {"measurement": "%G2/M", "setting": "HCT-116 cells [3]; 5.40 µM, 24-hour treatment (Table S2 title: 48 h), control 13.24", "result": 9.43, "unit": "%"}, {"measurement": "%S", "setting": "HCT-116 cells [3]; 5.40 µM, 24-hour treatment (Table S2 title: 48 h), control 32.81", "result": 22.46, "unit": "%"}, {"measurement": "%G0-G1", "setting": "HCT-116 cells [3]; 5.40 µM, 24-hour treatment (Table S2 title: 48 h), control 53.95", "result": 68.11, "unit": "%"}, {"measurement": "Bax/Bcl-2", "setting": "Bax; 24-hour treatment at 5.40 µM, control 4.53", "result": 72.83}, {"measurement": "Bax", "setting": "Bax; 24-hour treatment at IC50 5.40 µM, control 33.85", "result": "229.40 pg/mL and 229.40 ± 1.62 pg/mL"}, {"measurement": "improvement in Bax values versus untreated control", "setting": "Bax; 24 h, 5.40 µM", "result": 6.8, "unit": "fold"}, {"measurement": "IC50", "setting": "HepG-2 cell line", "result": "18.2 ± 2.2", "unit": "µM"}, {"measurement": "IC50", "setting": "VEGFR-2", "result": "3.2 ± 0.15", "unit": "µM"}, {"measurement": "IC50", "setting": "HCT-116 cell line", "result": 5.4, "unit": "µM"}, {"measurement": "IC50", "setting": "MCF-7 cell line [4]", "result": "7.9 ± 0.3", "unit": "µM"}]}
